Measurements taken from patent US20240408145A1, “Gene Therapy” (Ospedale San Raffaele S.r.l., priority 2021, published 2024).
Entries after “also recorded” stand apart in the source; their conditions may differ.

How the values were obtained:
[1] = test system: IL1A, IL8, IL6, CCL2; assay: Inflammatory cytokine expression in edited HSPCs (qPCR); assay type: cell-based, human; details: CB HSPCs, HS/AAV6; inhibitor at time of GE vs standard protocol
[2] = test system: human CD34+ HSPCs; assay: Culture composition of HSPC subpopulations (flow cytometry); assay type: cell-based
[3] = test system: edited human CD34+ HSPCs; assay: CD34+ HSPC xenotransplantation in NSG mice; assay type: in vivo
[4] = test system: human CD34+ HSPCs; assay: Senescence markers in HSPCs ex vivo (p16); assay type: cell-based; details: mPB-derived HSPCs, 24 h and 96 h upon GE
[5] = test system: BM-derived human CD34+ cells; assay: Senescence markers (p16, SA-β-Gal) in BM-derived cells of the human graft; assay type: in vivo, NSG mice
[6] = test system: human CD34+ HSPCs; assay: Apoptosis analysis of HSPCs (Annexin V, 7AAD); assay type: cell-based; details: HSPCs edited with COMBO, 24 h upon GE

## Anakinra: recombinant and slightly modified form of the Human interleukin-1 receptor antagonist (IL-1Ra); SEQ ID NO: 3
[1]
  Relative expression of inflammatory cytokine genes (IL1A, IL8, IL6, CCL2): downregulated 96 h upon Anakinra treatment
[2]; CB HSPCs, 24 h and 96 h post gene editing ± Anakinra
  Culture composition of HSPC subpopulations: No treatment skewed culture composition over time
[2]; HSPCs edited with COMBO, 24 h and 96 h
  Culture composition skewing: without overt apoptosis (FIG. 17I) and culture composition skewing
[2]; mPB-derived HSPCs ± Anakinra
  HSPC culture composition and differentiation: did not alter HSPC culture composition and differentiation
[3]; HS/AAV6 ± Anakinra
  Percentage of human edited (GFP+) cells in peripheral blood: higher and stable percentage of GFP+ cells; also recorded: reproducible higher and stable levels of HDR-edited cells
[3]; endpoint, HS/AAV6 ± Anakinra
  Percentage of GFP+ cells in BM human graft, HSPC, B and myeloid lineages: improved long-term reconstitution
[3]; mPB HSPCs, 15 weeks
  Percentage of human HDR-edited cells in bone marrow: trend of higher levels of HDR-edited cells
[3]; mPB HSPCs, matching low doses, 15 weeks
  Percentage of human CD45+ cells in bone marrow: comparable human engraftment independently of Anakinra treatment
[3]; saturating cell doses, HS/AAV6 ± Anakinra
  Percentage of human CD45+ cells in peripheral blood (plateau of circulating cells): 35-40%
[4]
  Percentage of p16+ senescent cells in GFP+ HDR-edited cells: partially mitigated by Anakinra treatment
[5]; NSG mice, endpoint 15-18 weeks, inhibitor at time of ex vivo GE
  Percentage of senescent cells (p16, SA-β-Gal) in BM-derived CD34+ / HDR-edited cells of the human graft: decrease
[5]; mPB HSPCs, BM-derived HSPC
  Senescence burden (p16+) in the human graft: reduction in the senescence burden in the human graft; also recorded: dampened GE-related senescence establishment
[6]
  Apoptosis: without overt apoptosis
